Laboratory results as given in PubChem BioAssay (NCI).
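Each compound was tested at five concentrations against cells in 96-well plates for 48 hours. GI50 marks 50% less growth. At the TGI there is no net growth.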

Key:
Test in all cases: inhibition of tumour cell growth, NCI panel, 48 h
[1] = test system: 786-0 renal
[2] = test system: A498 renal
[3] = test system: A549 NSCLC
[4] = test system: ACHN renal
[5] = test system: BT-549 breast
[6] = test system: CAKI-1 renal
[7] = test system: CCRF-CEM leukemia
[8] = test system: COLO 205 colon
[9] = test system: DU-145 prostate
[10] = test system: EKVX NSCLC
[11] = test system: HCC-2998 colon
[12] = test system: HCT-116 colon
[13] = test system: HCT-15 colon
[14] = test system: HL-60(TB) leukemia
[15] = test system: HOP-62 NSCLC
[16] = test system: HOP-92 NSCLC
[17] = test system: HS 578T breast
[18] = test system: HT29 colon
[19] = test system: IGROV1 ovarian
[20] = test system: K-562 leukemia
[21] = test system: KM12 colon
[22] = test system: LOX IMVI melanoma
[23] = test system: M14 melanoma
[24] = test system: MALME-3M melanoma
[25] = test system: MCF7 breast
[26] = test system: MDA-MB-231 breast
[27] = test system: MDA-MB-435
[28] = test system: MOLT-4 leukemia
[29] = test system: NCI-H226 lung
[30] = test system: NCI-H23 lung
[31] = test system: NCI-H460 lung
[32] = test system: NCI-H522 lung
[33] = test system: NCI/ADR-RES ovarian
[34] = test system: OVCAR-3 ovarian
[35] = test system: OVCAR-4 ovarian
[36] = test system: OVCAR-5 ovarian
[37] = test system: OVCAR-8 ovarian
[38] = test system: PC-3 prostate
[39] = test system: RPMI-8226 leukemia
[40] = test system: RXF 393 renal
[41] = test system: SF-268 CNS
[42] = test system: SF-295 CNS
[43] = test system: SF-539 CNS
[44] = test system: SK-MEL-2 melanoma
[45] = test system: SK-MEL-28 melanoma
[46] = test system: SK-MEL-5 melanoma
[47] = test system: SK-OV-3 ovarian
[48] = test system: SN12C renal
[49] = test system: SNB-19 CNS
[50] = test system: SNB-75 CNS
[51] = test system: SR leukemia
[52] = test system: SW-620 colon
[53] = test system: T-47D breast
[54] = test system: TK-10 renal
[55] = test system: U251 CNS
[56] = test system: UACC-257 melanoma
[57] = test system: UACC-62 melanoma
[58] = test system: UO-31 renal

Q: Which results are given for `Cc1c2c(nn1C)CSCc1cc(n(C)n1)CSc1cc(c3ccccc3c1)OCCCc1c(C(=O)O)n(C)c3c-2c(Cl)ccc13`?
A: GI50 [1]: 4.4 µM; TGI [1]: 17.8 µM; GI50 [2]: 4.01 µM; TGI [2]: 19 µM; GI50 [3]: 4.38 µM; TGI [3]: 15.6 µM; GI50 [4]: 4.1 µM; TGI [4]: 14 µM; GI50 [5]: 2.52 µM; TGI [5]: 11.2 µM; GI50 [6]: 4.98 µM; TGI [6]: 17.4 µM; GI50 [7]: 1.73 µM; TGI [7]: 10.6 µM; GI50 [8]: 3.36 µM; TGI [8]: 12.2 µM; GI50 [9]: 4.52 µM; TGI [9]: 15.9 µM; GI50 [10]: 3.86 µM; TGI [10]: 15.7 µM; GI50 [11]: 3.15 µM; TGI [11]: 13.4 µM; GI50 [12]: 3.53 µM; TGI [12]: 13 µM; GI50 [13]: 5.83 µM; TGI [13]: 18.9 µM; GI50 [14]: 0.0427 µM; TGI [14]: 0.294 µM; GI50 [15]: 4.62 µM; TGI [15]: 17.3 µM; GI50 [16]: 2.46 µM; TGI [16]: 10.2 µM; GI50 [17]: 4.48 µM; TGI [17]: 32.7 µM; GI50 [18]: 3.32 µM; TGI [18]: 12.6 µM; GI50 [19]: 3.99 µM; TGI [19]: 14.5 µM; GI50 [20]: 3.78 µM; TGI [20]: 16.8 µM; GI50 [21]: 3.3 µM; TGI [21]: 11.9 µM; GI50 [22]: 2.87 µM; TGI [22]: 12.1 µM; GI50 [23]: 2.68 µM; TGI [23]: 11.1 µM; GI50 [24]: 2.84 µM; TGI [24]: 9.87 µM; GI50 [25]: 0.575 µM; TGI [25]: 11.3 µM; GI50 [26]: 5.32 µM; TGI [26]: 18.2 µM; GI50 [27]: 2.45 µM; TGI [27]: 14.3 µM; GI50 [28]: 0.448 µM; TGI [28]: 4.4 µM; GI50 [29]: 4.4 µM; TGI [29]: 23.2 µM; GI50 [30]: 1.78 µM; TGI [30]: 10.6 µM; GI50 [31]: 3.23 µM; TGI [31]: 10.7 µM; GI50 [32]: 1.9 µM; TGI [32]: 8.01 µM; GI50 [33]: 14.2 µM; TGI [33]: 30 µM; GI50 [34]: 2.7 µM; TGI [34]: 6.82 µM; GI50 [35]: 6.76 µM; TGI [35]: 22.9 µM; GI50 [36]: 5.11 µM; TGI [36]: 17.6 µM; GI50 [37]: 4.62 µM; TGI [37]: 18.9 µM; GI50 [38]: 3.42 µM; TGI [38]: 13.2 µM; GI50 [39]: 0.0401 µM; TGI [39]: 1.33 µM; GI50 [40]: 1.29 µM; TGI [40]: 3.63 µM; GI50 [41]: 4.42 µM; TGI [41]: 16.3 µM; GI50 [42]: 2.52 µM; TGI [42]: 8.37 µM; GI50 [43]: 1.53 µM; TGI [43]: 7.33 µM; GI50 [44]: 0.165 µM; TGI [44]: 0.429 µM; GI50 [45]: 3.61 µM; TGI [45]: 12.9 µM; GI50 [46]: 2.2 µM; TGI [46]: 5.22 µM; GI50 [47]: 10.6 µM; TGI [47]: 22.7 µM; GI50 [48]: 3.38 µM; TGI [48]: 12.6 µM; GI50 [49]: 3.56 µM; TGI [49]: 13.9 µM; GI50 [50]: 4.35 µM; TGI [50]: 18 µM; GI50 [51]: 0.47 µM; TGI [51]: 7.25 µM; GI50 [52]: 4.26 µM; TGI [52]: 16 µM; GI50 [53]: 3.88 µM; TGI [53]: 15.7 µM; GI50 [54]: 4.75 µM; TGI [54]: 18.3 µM; GI50 [55]: 4.05 µM; TGI [55]: 13.7 µM; GI50 [56]: 4.16 µM; TGI [56]: 16 µM; GI50 [57]: 0.456 µM; TGI [57]: 2.35 µM; GI50 [58]: 5.07 µM; TGI [58]: 17.8 µM
